In US6846660B2, “Method of making an aldehyde dehydrogenase with gluconobacter” (Roche Vitamins Inc., priority 1997, dated 2005):

Target: T1, aldehyde dehydrogenase (ADH) (Ketogulonicigenium vulgare, UniProt Q402A8)
T1 sequence (Q402A8 32-609): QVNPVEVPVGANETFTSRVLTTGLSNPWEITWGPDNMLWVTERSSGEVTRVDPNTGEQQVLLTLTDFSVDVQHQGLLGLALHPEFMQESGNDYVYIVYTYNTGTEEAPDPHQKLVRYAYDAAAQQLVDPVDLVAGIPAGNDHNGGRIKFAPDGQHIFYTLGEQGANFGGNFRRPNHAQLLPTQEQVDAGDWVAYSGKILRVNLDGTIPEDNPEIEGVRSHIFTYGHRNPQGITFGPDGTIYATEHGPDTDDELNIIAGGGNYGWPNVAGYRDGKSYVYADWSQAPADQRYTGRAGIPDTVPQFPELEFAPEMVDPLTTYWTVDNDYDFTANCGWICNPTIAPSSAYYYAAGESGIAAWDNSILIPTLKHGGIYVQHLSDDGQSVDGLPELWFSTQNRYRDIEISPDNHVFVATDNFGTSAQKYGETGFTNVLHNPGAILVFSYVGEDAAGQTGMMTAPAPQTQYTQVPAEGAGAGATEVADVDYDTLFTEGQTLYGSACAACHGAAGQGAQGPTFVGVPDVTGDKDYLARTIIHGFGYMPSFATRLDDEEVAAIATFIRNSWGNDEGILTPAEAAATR
Assay: Electron acceptor suitability for oxidation of L-sorbosone to 2-KGA
Assay type: biochemical, Gluconobacter oxydans DSM No. 4025 (FERM BP-3812)
Details: not given
Description: This was affirmed by the failure of the enzyme to convert L-sorbosone to 2-KGA using oxygen as a possible electron acceptor. Furthermore, no oxygen consumption was detected in the reaction mixture as detected with a dissolved oxygen probe. […] However, other conventional electron acceptors can be utilized in conjunction with the enzyme of this invention. DCIP, PMS, ferricyanide and cytochrome c are preferred electron acceptors. There is no minimum amount of electron acceptor which must be present for at least some of the aldehyde substrate to be converted to its corresponding acid. However, the amount of substrate which can be oxidized depends on the amount of the particular electron acceptor and its electron accepting characteristics.

For `O=O` [oxygen], which “suitability as electron acceptor” value is on record?
Its value is “does not work”.

Same assay, conditions: oxidation of L-sorbosone to 2-KGA by purified ADH

For `O=C1C=CC(=Nc2cc(Cl)c(O)c(Cl)c2)C=C1` [DCIP, 2,6-dichlorophenolindophenol], which “suitability as electron acceptor” value is on record?
The value was “oxidizes L-sorbosone to 2-KGA in the presence of electron acceptors”.

With `COS(=O)(=O)[O-].C[n+]1c2ccccc2nc2ccccc21` [PMS, phenazine methosulfate] as the molecule, how does the “suitability as electron acceptor” value read?
Its value is “oxidizes L-sorbosone to 2-KGA in the presence of electron acceptors”.

cytochrome c was tested. Which “suitability as electron acceptor” value did it give?
The value was “oxidizes L-sorbosone to 2-KGA in the presence of electron acceptors”.

How did the “suitability as electron acceptor” value turn out when “nicotinamide adenine dinucleotide phosphate [NADP]” was run?
Its value is “not suitable electron acceptors”.

Target: T1, aldehyde dehydrogenase (ADH)
Assay: Identification of the oxidation products
Assay type: biochemical, Gluconobacter oxydans DSM No. 4025 (FERM BP-3812)
Details: not given
Description: The reaction mixture containing the purified enzyme (1.56 mg), L-sorbosone (0.142 mg), PMS (0.008 mg) and PQQ (0.3 mg) in 40μl of the buffer was incubated for 1.5 hours at 30° C. The reaction product was analyzed on thin layer chromatography and HPLC. As a result, the reaction product was identified as 2-KGA in comparison with an authentic sample of 2-KGA.

`O=C[C@H](O)[C@@H](O)[C@@H](O)[C@H](O)CO` [D-Galactose] was tested. Which Product did it give?
Its Product is “D-Galactonic acid”.

For `O=C[C@@H](O)[C@@H](O)[C@H](O)[C@@H](O)CO` [L-Gulose], which Product is on record?
Its Product is “L-Gulonic acid”.

Same assay, conditions: products of the oxidation of the substrates of Table 1A

`O=C[C@@H](O)[C@H](O)[C@H](O)CO` [D-Arabinose] was tested. Which Product did it give?
The Product was “D-Arabonic acid”.

For `O=C[C@H](O)[C@@H](O)[C@H](O)[C@H](O)CO` [D-Glucose], which Product is on record?
Its Product is “D-Gluconate”.

For `O=CC(=O)[C@@H](O)[C@H](O)[C@H](O)CO` [D-Glucosone], which Product is on record?
The Product was 2-Keto-D-gluconic acid.

`O=C[C@@H](O)[C@@H](O)[C@H](O)[C@H](O)CO` [D-Mannose] was tested. Which Product did it give?
The Product was “D-Mannoic acid”.

`O=C[C@H](O)[C@H](O)[C@H](O)CO` [D-Ribose] was tested. Which Product did it give?
Its Product is “D-Ribonic acid”.

`O=C[C@H](O)[C@@H](O)[C@H](O)CO` [D-Xylose] was tested. Which Product did it give?
The Product was “D-Xylonic acid”.

For `O=CC(=O)[C@@H](O)[C@H](O)[C@@H](O)CO` [L-Sorbosone], which Product is on record?
The Product was 2-KGA.

Same assay, conditions: purified enzyme, PMS, PQQ, 1.5 hours at 30 °C; thin layer chromatography and HPLC

`O=CC(=O)[C@@H](O)[C@H](O)[C@@H](O)CO` [L-Sorbosone] was tested. Which reaction product identified did it give?
Its reaction product identified is 2-KGA.

Target: T1, aldehyde dehydrogenase (ADH)
Assay: not given
Assay type: biochemical, Gluconobacter oxydans DSM No. 4025 (FERM BP-3812)
Details: not given
Description: The reaction was started at 25° C. with L-sorbosone, and the enzyme activity was measured as the initial reduction rate of DCIP at 600 nm. […] The extinction coefficience of DCIP at pH 8.0 was taken as 15 mM^−1. A reference cuvette contained all the above constituents except L-sorbosone.
The effects of metal ions and inhibitors on the activity of the enzyme were examined by measuring the activity using the same assay method as described under 1) above. Each compound solution was stirred into the basal reaction mixture and the reaction was started with the addition of the enzyme.

How did the Relative activity turn out when `O.O.[Ca+2].[Cl-].[Cl-]` [CaCl2.2H2O] was run?
Its Relative activity is 204.5%.

And the “stimulation of enzyme activity” value?
The value was “about 2 fold”.

How did the Relative activity turn out when `O.O.O.O.O.O.[Cl-].[Cl-].[Co+2]` [CoCl2.6H2O] was run?
Its Relative activity is 76.0%.

And the “effect on enzyme activity (in words)” value?
Its value is “inhibited the enzyme activity”.

What does the source list for `O=S(=O)([O-])[O-].[Cu+2]` [CuSO4]?
Relative activity: 0.0%; effect on enzyme activity (in words): inhibited the enzyme activity

`O=S(=O)([O-])[O-].O=S(=O)([O-])[O-].O=S(=O)([O-])[O-].[Fe+3].[Fe+3]` [Fe2(SO4)3.xH2O] was tested. Which Relative activity did it give?
Its Relative activity is 58.9%.

What about the “effect on enzyme activity (in words)” value of the same molecule?
The value was “inhibited the enzyme activity”.

`[Cl-].[Cl-].[Mg+2]` [MgCl2] was tested. Which Relative activity did it give?
The Relative activity was 90.3%.

With `O=C(O)CI` [Monoiodoacetate] as the molecule, how does the Relative activity read?
Its Relative activity is 52.2%.

For `[F-].[Na+]` [NaF], which Relative activity is on record?
The Relative activity was 86.7%.

For `[N-]=[N+]=[N-].[Na+]` [NaN3], which Relative activity is on record?
The Relative activity was 104.6%.

`O.O.O.O.O.O.O=S(=O)([O-])[O-].[Ni+2]` [NiSO4.6H2O] was tested. Which Relative activity did it give?
Its Relative activity is 74.9%.

And the “effect on enzyme activity (in words)” value?
The value was “inhibited the enzyme activity”.

For `[Cl][Ti]([Cl])([Cl])[Cl]` [TiCl4], which Relative activity is on record?
The Relative activity was 128.0%.

`[Cl-].[Cl-].[Zn+2]` [ZnCl2] was tested. Which Relative activity did it give?
Its Relative activity is 40.3%.

What about the “effect on enzyme activity (in words)” value of the same molecule?
The value was “inhibited the enzyme activity”.

Same assay, conditions: compound at 1.0 mM; None = 100.0

`CCN1C(=O)C=CC1=O` [N-Ethylmaleimide] was tested. Which Relative activity did it give?
Its Relative activity is 110.8%.

Target: T1, aldehyde dehydrogenase (ADH)
Assay: Prosthetic group: PQQ requirement of the purified enzyme
Assay type: biochemical, Gluconobacter oxydans DSM No. 4025 (FERM BP-3812)
Details: added to basal reaction mixture without PQQ

Which “effect of cofactor addition on enzyme activity” value does the source give for `O=C(O)c1cc(C(=O)O)c2c(n1)C(=O)C(=O)c1cc(C(=O)O)[nH]c1-2` [PQQ, pyrroloquinoline quinone] here?
The value was “restored”.
